Like-named read-outs stand apart in the source and are kept apart here. Marks after values point to notes of the source that are not given here. Bridges are numbered along the chain shown (N, C = ends). Where no end group is shown, it is not given here.
What was measured:
[1] = tested on: A. baumannii 7226/16; test: microbe, parasite or virus in culture; assay type: cell-based; conditions: Acinetobacter baumannii; A. baumannii 7226/16, drug-resistant clinical isolate
Method: (§1) Prior to the “checkerboard” synergy test the minimal inhibitory concentrations (MIC) of individual substances were determined using broth microdilution assay. Testing was performed in 60-well polystyrene Terasaki microplates with V-shaped bottom generally according to the guidelines of the European Committee for Antimicrobial Susceptibility Testing with subtle modifications designed for AMP testing (Tossi et al., [1997]; Wiegand et al., [2008]). Cultivation of bacteria was carried out in 2.1% Müller-Hinton broth at 37°C with shaking. Two-fold serial dilutions of peptides, antibiotics and other antimicrobials were made with 10 mM sodium phosphate buffer, pH 7.4, containing 0.1% of BSA. The plates were preliminary incubated with 0.1% BSA for 1 h at 37°C to reduce a non-specific binding of peptides to the plates. After that BSA was removed, and serial dilutions were added into the plate wells in triplicates followed by the same volume of the suspension of bacterial cells in logarithmic phase of growth in concentration of 1 × 10^6 CFU/ml. After the 18 h overnight incubation at 37°C, the MIC value for each compound was determined as its lowest concentration completely inhibiting the visible growth of bacteria. The final results were calculated as median values based on 3–6 independent experiments.

[2] = tested on: E. coli ESBL 521/17; test: microbe, parasite or virus in culture; assay type: cell-based; conditions: Escherichia coli, ESBL521/17; E. coli ESBL 521/17, drug-resistant clinical isolate; square brackets = twice the maximal tested concentration
Method: as §1

[3] = tested on: K. pneumoniae ESBL 344/17; test: microbe, parasite or virus in culture; assay type: cell-based; conditions: Klebsiella pneumoniae, ESBL344/17; K. pneumoniae ESBL 344/17, drug-resistant clinical isolate
Method: as §1

[4] = tested on: P. aeruginosa MDR 522/17; test: microbe, parasite or virus in culture; assay type: cell-based; conditions: Pseudomonas aeruginosa, MDR522/17; P. aeruginosa MDR 522/17, drug-resistant clinical isolate
Method: as §1

[5] = tested on: S. aureus 1399/17; test: microbe, parasite or virus in culture; assay type: cell-based; conditions: Staphylococcus aureus
Method: as §1

[6] = tested on: E. coli ESBL 521/17; test: Checkerboard titration (FICI); assay type: cell-based, Escherichia coli
Method: (§2) The combined antimicrobial action of AMPs and other antimicrobial compounds was assessed using checkerboard titration approach under the conditions similar to that of the microdilution assay. According to checkerboard titration template, one component (A) of the combination was diluted along the rows of the plate, while the other (B) was diluted down the columns, thereby creating the variety of mixtures with different concentrations of tested compounds. 2.5 μl of corresponding solutions of the components A and B were added into each well of the plate. Into the first column and the last row the same amount of 10 mM sodium phosphate buffer, pH 7.4, containing 0.1% of BSA was introduced instead of the second component. Thus, all wells contained 5 μl of antimicrobial compounds solutions (solo or in combination). The same volume of bacterial suspension, prepared as described for microdilution assay, was added into each well. The results were recorded after the overnight incubation, visually indicating the presence or absence of the microbial growth in the corresponding wells. Based on the obtained data the isobolograms of combined action were plotted and/or Fractional Inhibitory Concentration Indices (FICI) were calculated. […] Depending on the minimal value of the FICI the combined effect of the combination was classified as antagonism (FICI > 2), independent action (1 < FICI ≤ 2), additivity (0.5 < FICI ≤ 1) or synergy (FICI ≤ 0.5), as is recommended in the literature and due to some drawbacks of the serial dilution method (Hsieh et al., [1993]; Orhan et al., [2005]; Fehri et al., [2007]). FICIs were assessed in 3–6 independent experiments and median values were used to define the nature of interaction.

[7] = tested on: A. baumannii 7226/16; test: Checkerboard titration (FICI); assay type: cell-based, Acinetobacter baumannii
Method: as §2

[8] = tested on: P. aeruginosa MDR 522/17; test: Checkerboard titration (FICI); assay type: cell-based, Pseudomonas aeruginosa
Method: as §2

[9] = tested on: K. pneumoniae ESBL 344/17; test: Checkerboard titration (FICI); assay type: cell-based, Klebsiella pneumoniae
Method: as §2

[10] = tested on: S. aureus 1399/17; test: Checkerboard titration (FICI); assay type: cell-based, Staphylococcus aureus
Method: as §2

[11] = tested on: bacteria; test: Checkerboard titration, synergy cases with conventional antibiotics (all tested bacteria); assay type: cell-based; conditions: in vitro, human AMPs
Method: as §2, with “According” for “The combined antimicrobial action of AMPs and other antimicrobial compounds was assessed using checkerboard titration approach under the conditions similar to that of the microdilution assay. According”

[12] = tested on: MRSA ATCC 33591; test: microbe, parasite or virus in culture; assay type: cell-based, Staphylococcus aureus; conditions: median of 3–6 experiments, square brackets = twice the maximal tested concentration
[13] = S. aureus 1399/17, drug-resistant clinical isolate, read-out: MIC
[14] = antibiotic in combination with ChBac3.4
[15] = antibiotic in combination with PG-1

Compound | MIC [1] [µM] | MIC [2] [µM] | MIC [3] [µM] | MIC [4] [µM] | MIC [5, 13] [µM] | Minimal FICI [6, 14] | Minimal FICI [6, 15] | Minimal FICI [7, 14] | Minimal FICI [7, 15] | Minimal FICI [8, 14] | Minimal FICI [8, 15] | Minimal FICI [9, 14] | Minimal FICI [9, 15] | Minimal FICI [10, 14] | Minimal FICI [10, 15] | AMP concentration in synergy cases with conventional antibiotics [11] [µM] | MIC [12] | MIC ([5]; 1399/17) [µM]
CC[C@H]1OC(=O)[C@H](C)[C@@H](O[C@H]2C[C@@](C)(OC)[C@@H](O)[C@H](C)O2)[C@H](C)[C@@H](O[C@@H]2O[C@H](C)C[C@H](N(C)C)[C@H]2O)[C@](C)(O)C[C@@H](C)C(=O)[C@H](C)[C@@H](O)[C@]1(C)O [Erythromycin] | > 50 | > 50 | 50 | > 50 | > 50 | 0.38^* | 0.62 | 0.75 | 1.12 | 0.38^* | 0.5^* | 0.25^* | 0.25^* | 0.5^* | 0.75 |  |  | 
GIINTLQKYYCRVRGGRCAVLSCLPKEEQIGKCSTRGRKCCRRKK (disulfide 11-40, 18-33, 23-41 (inferred)) [hBD-3] |  |  |  |  |  |  |  |  |  |  |  |  |  |  |  | 0.08 to 3.75 |  | 
NCC[C@H](O)C(=O)N[C@@H]1C[C@H](N)[C@@H](O[C@H]2O[C@H](CN)[C@@H](O)[C@H](O)[C@H]2O)[C@H](O)[C@H]1O[C@H]1O[C@H](CO)[C@@H](O)[C@H](N)[C@H]1O [Amikacin] | 6.25 | 1 | 0.25 | 1 | > 50 | 0.62 | 0.38 | 0.5^* | 0.38^* | 0.5 | 0.5 | 0.38 | 0.31 | 0.125^* | 1.0 |  |  | 
GIGDPVTCLKSGAICHPVFCPRRYKQIGTCGLPGTKCCKKP (disulfide 8-37, 15-30, 20-38 (inferred)) [hBD-2] |  |  |  |  |  |  |  |  |  |  |  |  |  |  |  | 0.2 to 1.6 | >100 [200] μM | 
C[C@@H](O)[C@H]1C(=O)N2C(C(=O)O)=C(S[C@@H]3CN[C@H](C(=O)N(C)C)C3)[C@H](C)[C@H]12 [Meropenem] | > 50 | 0.04 | 0.04 | 25 |  | 1.0 | 1.0 | 0.5^* | 0.38^* | 0.62 | 1.0 | 1.0 | 1.0 | 0.31^* | 0.25^* |  |  | 6.25

From PMC6503114, “Application of Antimicrobial Peptides of the Innate Immune System in Combination With Conventional Antibiotics—A Novel Way to Combat Antibiotic Resistance?” (Frontiers in Cellular and Infection Microbiology, 2019)
